From US20210023223A1, “HYDROCARBON / LIPID - CAROTENOID COMPLEXES” (IP SCIENCE LIMITED, priority 2018, published 2021)

What was measured:
[1] = Acid induced degradation at pH 2.5, gas chromatography; format: physicochemical
Experimental: Briefly, 100 μl of serum and 2 ml of the stock solution were combined in screw-capped glass tubes. The tubes were capped and heated at 100 C for 60 min. The tubes were allowed to cool down to the room temperature and were extracted twice with 1 ml hexane. The combined hexane solution was evaporated under vacuum (Scan Speed 32 centrifuge) and the residue reconstituted to the volume of 50 μl with of hexane, transferred to GC vials, and capped under nitrogen.
Temperature program, initial: 130 C with a 4 min hold; ramp: 4 C/min to 280 C with a 2 min hold. Carrier gas was He, with a linear velocity of 30 cm/s. Fatty acid analysis was performed by injection of 1 μl of each sample at a split ratio of 50:1. The FID and the Injection port temperature was 300 C. The sampling frequency was 40 Hz. Fatty acids identification was performed with SUPELCO 37 COMPONENT FAME MIX (Supelco, USA). DHA concentrations were calculated on the basis of the standard concentrations. Analytical standard of DHA and PTC (Sigma, USA) were used in the assay.

Melting time at 37° C. = format: physicochemical; conditions: 1 mg per 1 g of the chocolate; control 19 minutes
Experimental: Approximately 20 mg of butter, or pork fat, or beef fat, or cocoa butter, or chocolate, with or without certain concentrations of carotenoids, were placed on the surface of the laboratory slides and incubated at 37° C. in a laboratory incubator (TLK39).
Results presented in FIG. 15 show three different carotenoids—lycopene, lutein and astaxanthin, can reduce, albeit to a different degree, the melting time of dark chocolate regardless of its tempering protocols: Protocol I—28° C., Protocol II—29° C., Protocol III—30° C.

[2] = test system: individuals with a moderate hyperlipidemia; assay: Clinical Trial DHA-Lycopene, 4 weeks; format: in vivo, human; conditions: for LDL / Triglycerides: medians, DHA 250 mg and/or lycopene 7 mg once a day
Experimental: To validate this, a clinical trial was undertaken. 32 individuals aged 40-65 years old with a moderate hyperlipidemia (serum triglycerides, TG, >150 mg/dl and LDL from 130 to 160 mg/dl). They were randomised and split in four groups of 8: • The first was supplemented with a 250 mg of conventional formulation of DHA without lycopene (CF-DHA), • the second with 7 mg of lycopene, • the third with 250 mg of DHA and 7 mg of lycopene co-ingested at the same time but as two separate products, and • the fourth group received 7 mg lycopene formulated with 250 mg of DHA (LF-DHA). All products were taken once a day with the main meal. The duration of the trial was for 4 weeks.

[3] = DHA preparation without lycopene
[4] = DHA preparation with lycopene 1 mg per 1 g of DHA

| Molecule | GC peak Area, %, Baseline [1, 3] [%] | GC peak Area, Baseline [1, 3] | GC peak Area, %, After 2 hours at pH 2.5 [1, 4] [%] | GC peak Area, %, Baseline [1, 4] [%] | GC peak Area, After 2 hours at pH 2.5 [1, 4] | GC peak Area, Baseline [1, 4] | GC peak Area, %, After 2 hours at pH 2.5 [1, 3] [%] | GC peak Area, After 2 hours at pH 2.5 [1, 3] | Melting time of dark chocolate (Melting time at 37° C.) [min] | LDL ([2]; 0 w) [mg/dL] | Triglycerides ([2]; 0 w) [mg/dL] | LDL ([2]; 4 w) [mg/dL] | Triglycerides ([2]; 4 w) [mg/dL] | Reduction of medians of serum TG concentration ([2]; 4 weeks) [mg/dL] | Reduction in LDL ([2]; 4 weeks, p<0.05) [mg/dL] |
| --- | --- | --- | --- | --- | --- | --- | --- | --- | --- | --- | --- | --- | --- | --- | --- |
| CCCCCC(=O)O [Caproic] | 1.31 | 13,975 | – | – | – | – | – | – | – | – | – | – | – | – | – |
| CCC=CCC=CCC=CCC=CC/C=C\CCCC(=O)O [cis-5,8,11,14,17-eicosapentaenoic] | 1.07 | 11,447 | 1.01 | 1.03 | 10,759 | 9,937 | 0.99 | 6679 | – | – | – | – | – | – | – |
| CC1=C[C@H](O)CC(C)(C)[C@H]1/C=C/C(C)=C/C=C/C(C)=C/C=C/C=C(C)/C=C/C=C(C)/C=C/C1=C(C)C[C@@H](O)CC1(C)C [Lutein, lutein] | – | – | – | – | – | – | – | – | 6 | – | – | – | – | – | – |
| CCCCCCCCCCCC(=O)O [Lauric] | 0.16 | 1,718 | 0.15 | 0.14 | 1,605 | 1,354 | – | – | – | – | – | – | – | – | – |
| CCCCCCCCCCCCCCCCCCCC(=O)O [Arachidic] | 0.10 | 1,032 | – | – | – | – | – | – | – | – | – | – | – | – | – |
| CCCCC/C=C\C/C=C\CCCCCCCC(=O)O [Linoleic] | 0.89 | 9,494 | 0.98 | 1.28 | 10,395 | 12,328 | 1.25 | 8396 | – | – | – | – | – | – | – |
| CCCCCCCCCCCCCC(=O)O [Myristic] | 6.23 | 73,096 | 6.56 | 6.42 | 69,816 | 61,814 | 6.42 | 43,118 | – | – | – | – | – | – | – |
| CCCC/C=C\CCCCCCCC(=O)O [Myristoleic] | 0.18 | 1,934 | 0.17 | 0.17 | 1,789 | 1,662 | 0.18 | 1,197 | – | – | – | – | – | – | – |
| CCC=CCC=CCC=CCC=CCC=CC/C=C\CCC(=O)O [cis-4,7,10,13,16,19-Docosahexaenoic] | 42.63 | 456,572 | 43.60 | 42.55 | 464,051 | 409,974 | 43.54 | 292,485 | – | – | – | – | – | – | – |
| CCCCCCCCCCCCCCCCCC(=O)O [Stearic] | 0.66 | 7,051 | 0.64 | 0.69 | 6,811 | 6,673 | 0.68 | 4597 | – | – | – | – | – | – | – |
| CCCCCCCCCCCCCCCC(=O)O [Palmitic] | 18.45 | 197,526 | 17.52 | 17.82 | 186,438 | 171,664 | 17.66 | 118,649 | – | – | – | – | – | – | – |
| CCCCC/C=C\C/C=C\C/C=C\C/C=C\CCCC(=O)O [Arachidonic] | 0.83 | 8,907 | 0.81 | 0.82 | 8,565 | 7,859 | 0.79 | 5323 | – | – | – | – | – | – | – |
| CCCCCCCC/C=C/CCCCCCCC(=O)O [Elaidic] | 0.20 | 2,108 | 0.21 | 0.26 | 2,205 | 2,537 | 0.24 | 1629 | – | – | – | – | – | – | – |
| Linole/alpha-linilenic | 6.53 | 69,917 | 6.42 | 6.63 | 68,330 | 63,846 | 6.72 | 45112 | – | – | – | – | – | – | – |
| CCCCC/C=C\C/C=C\C/C=C\CCCCC(=O)O [gamma-Linolenic] | 0.28 | 3,030 | 0.26 | 0.27 | 2,767 | 2,627 | 0.28 | 1,851 | – | – | – | – | – | – | – |
| CCCCCCCCCCCCCCCCCCCCCCCC(=O)O [Lignoceric] | 0.14 | 1,518 | 0.17 | 0.17 | 1,775 | 1,613 | 0.17 | 1162 | – | – | – | – | – | – | – |
| CCCCCCCCCCCCCCCCCCCCCC(=O)O [Behenic] | 0.10 | 1,096 | – | – | – | – | – | – | – | – | – | – | – | – | – |
| CCCCCC/C=C\CCCCCCCC(=O)O [Palmitoleic] | 0.11 | 1,219 | 0.16 | 0.17 | 1,710 | 1,598 | 0.19 | 1,278 | – | – | – | – | – | – | – |
| CC/C=C\C/C=C\C/C=C\C/C=C\C/C=C\C/C=C\CCC(=O)O [DHA, Doxosahexaenoic Acid] | – | – | – | – | – | – | – | – | – | 155.5 | 191.5 | 153.5 | 185.5 | 27.5 | 19.5 |
| cis-8,11,14,17-eicosapentaenoic | 0.47 | 5,002 | 0.55 | 0.46 | 5,889 | 4,391 | 0.42 | 2800 | – | – | – | – | – | – | – |
| CCCCCCCCCCCCCCC(=O)O [Pentadecanoic] | 0.29 | 3,120 | 0.27 | 0.26 | 2,843 | 2,511 | 0.26 | 1,716 | – | – | – | – | – | – | – |
